Source: paper PMC8222254, “Self-assembly of an anion receptor with metal-dependent kinase inhibition and potent in vitro anti-cancer properties” (Nature Communications, 2021)
“And” between values parts separate entries of the source, which are not always exact repeats. Identical values can stand only once.

Assays:
Experiment in all cases: Kinase inhibition screen, cell-free 33P ATP assay at 10 μM
Assay type in all cases: biochemical
[1] = molecular target: T1, 140 purified human kinases (Homo sapiens, UniProt P54753)
T1 sequence (P54753 34-998): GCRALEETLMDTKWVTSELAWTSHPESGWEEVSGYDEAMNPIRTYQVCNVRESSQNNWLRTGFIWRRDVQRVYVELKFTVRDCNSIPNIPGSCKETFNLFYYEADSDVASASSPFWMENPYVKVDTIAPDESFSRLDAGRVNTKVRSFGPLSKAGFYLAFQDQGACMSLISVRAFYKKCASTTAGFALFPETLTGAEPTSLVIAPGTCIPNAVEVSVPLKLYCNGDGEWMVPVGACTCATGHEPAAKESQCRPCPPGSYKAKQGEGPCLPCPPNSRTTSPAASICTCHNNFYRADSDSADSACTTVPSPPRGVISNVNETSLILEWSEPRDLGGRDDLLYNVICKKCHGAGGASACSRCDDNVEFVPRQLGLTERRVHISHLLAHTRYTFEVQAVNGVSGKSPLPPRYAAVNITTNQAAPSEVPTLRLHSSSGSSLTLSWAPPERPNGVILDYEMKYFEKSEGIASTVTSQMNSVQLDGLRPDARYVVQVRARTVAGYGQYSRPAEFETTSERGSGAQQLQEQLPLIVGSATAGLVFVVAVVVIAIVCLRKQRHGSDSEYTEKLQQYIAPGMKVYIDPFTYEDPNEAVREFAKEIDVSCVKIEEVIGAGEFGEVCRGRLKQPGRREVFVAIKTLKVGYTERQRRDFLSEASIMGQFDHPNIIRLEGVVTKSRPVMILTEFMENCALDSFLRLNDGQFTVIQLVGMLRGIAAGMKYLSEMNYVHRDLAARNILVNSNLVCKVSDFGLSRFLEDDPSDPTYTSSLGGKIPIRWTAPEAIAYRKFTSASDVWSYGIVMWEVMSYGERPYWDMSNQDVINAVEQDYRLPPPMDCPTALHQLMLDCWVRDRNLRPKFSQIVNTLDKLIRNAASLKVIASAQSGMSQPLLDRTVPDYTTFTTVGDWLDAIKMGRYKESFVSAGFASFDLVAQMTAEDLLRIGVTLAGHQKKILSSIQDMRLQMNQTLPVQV
How it was run: (§1)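 Radiometric ^33P ATP cell-free format with purified enzymes; both complexes run at 10 μM in duplicate, results plotted on a kinome map via HGNC symbols.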

[2] = molecular target: T2, 140 purified human kinases (Homo sapiens, UniProt O43781)
T2 sequence (O43781 1-588): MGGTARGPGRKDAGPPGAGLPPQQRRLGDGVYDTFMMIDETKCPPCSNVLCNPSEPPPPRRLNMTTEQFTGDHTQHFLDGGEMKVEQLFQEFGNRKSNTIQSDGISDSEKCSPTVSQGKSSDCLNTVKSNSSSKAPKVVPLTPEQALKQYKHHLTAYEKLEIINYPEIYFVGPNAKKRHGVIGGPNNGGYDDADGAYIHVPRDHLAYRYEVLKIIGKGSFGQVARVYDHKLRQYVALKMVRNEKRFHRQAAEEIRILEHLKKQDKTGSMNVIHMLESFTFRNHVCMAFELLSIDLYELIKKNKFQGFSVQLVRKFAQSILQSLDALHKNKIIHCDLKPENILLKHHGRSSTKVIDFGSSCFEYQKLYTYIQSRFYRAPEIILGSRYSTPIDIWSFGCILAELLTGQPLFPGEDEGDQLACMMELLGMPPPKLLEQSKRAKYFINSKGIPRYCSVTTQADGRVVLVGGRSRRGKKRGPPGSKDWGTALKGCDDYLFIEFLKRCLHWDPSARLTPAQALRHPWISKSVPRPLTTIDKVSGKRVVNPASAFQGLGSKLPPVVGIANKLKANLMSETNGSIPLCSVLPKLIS
How it was run: as §1

[3] = molecular target: 140 purified human kinases (Homo sapiens, UniProt Q9NQU5)
140 purified human kinases (Homo sapiens, UniProt Q9NQU5), sequence (Q9NQU5 whole entry): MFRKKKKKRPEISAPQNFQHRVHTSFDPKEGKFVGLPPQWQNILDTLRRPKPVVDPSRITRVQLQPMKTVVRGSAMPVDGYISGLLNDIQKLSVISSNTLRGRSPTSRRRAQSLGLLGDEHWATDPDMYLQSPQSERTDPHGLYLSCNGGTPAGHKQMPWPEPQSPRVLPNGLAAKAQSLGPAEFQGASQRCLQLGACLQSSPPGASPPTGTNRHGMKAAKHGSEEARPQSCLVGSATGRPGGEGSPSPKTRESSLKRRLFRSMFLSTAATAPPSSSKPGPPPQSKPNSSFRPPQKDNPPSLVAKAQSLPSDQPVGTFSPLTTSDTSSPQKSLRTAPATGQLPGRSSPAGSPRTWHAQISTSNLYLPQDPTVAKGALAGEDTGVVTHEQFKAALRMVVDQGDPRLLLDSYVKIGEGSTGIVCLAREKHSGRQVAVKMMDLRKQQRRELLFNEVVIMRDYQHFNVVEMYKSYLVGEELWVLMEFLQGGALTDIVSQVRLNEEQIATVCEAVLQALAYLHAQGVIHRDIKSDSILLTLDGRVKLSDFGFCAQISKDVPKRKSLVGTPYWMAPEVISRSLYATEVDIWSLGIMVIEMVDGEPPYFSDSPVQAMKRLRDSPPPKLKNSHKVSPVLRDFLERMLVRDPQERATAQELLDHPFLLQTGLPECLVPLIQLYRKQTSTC
How it was run: as §1

[4] = molecular target: 140 purified human kinases (Homo sapiens, UniProt P45983)
140 purified human kinases (Homo sapiens, UniProt P45983), sequence (P45983 whole entry): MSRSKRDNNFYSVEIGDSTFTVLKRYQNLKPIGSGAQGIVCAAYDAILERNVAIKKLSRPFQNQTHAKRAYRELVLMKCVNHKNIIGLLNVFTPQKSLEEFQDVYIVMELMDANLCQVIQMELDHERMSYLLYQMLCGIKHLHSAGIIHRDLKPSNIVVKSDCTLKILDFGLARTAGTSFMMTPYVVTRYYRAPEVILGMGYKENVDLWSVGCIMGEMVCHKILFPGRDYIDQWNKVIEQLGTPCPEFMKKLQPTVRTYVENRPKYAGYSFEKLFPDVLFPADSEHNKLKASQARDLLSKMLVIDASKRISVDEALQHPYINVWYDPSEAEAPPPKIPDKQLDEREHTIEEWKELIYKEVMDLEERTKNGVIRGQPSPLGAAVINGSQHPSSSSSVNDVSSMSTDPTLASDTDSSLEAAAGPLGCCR
How it was run: as §1

[5] = molecular target: 140 purified human kinases (Homo sapiens, UniProt Q9Y2K2)
140 purified human kinases (Homo sapiens, UniProt Q9Y2K2), sequence (Q9Y2K2 whole entry): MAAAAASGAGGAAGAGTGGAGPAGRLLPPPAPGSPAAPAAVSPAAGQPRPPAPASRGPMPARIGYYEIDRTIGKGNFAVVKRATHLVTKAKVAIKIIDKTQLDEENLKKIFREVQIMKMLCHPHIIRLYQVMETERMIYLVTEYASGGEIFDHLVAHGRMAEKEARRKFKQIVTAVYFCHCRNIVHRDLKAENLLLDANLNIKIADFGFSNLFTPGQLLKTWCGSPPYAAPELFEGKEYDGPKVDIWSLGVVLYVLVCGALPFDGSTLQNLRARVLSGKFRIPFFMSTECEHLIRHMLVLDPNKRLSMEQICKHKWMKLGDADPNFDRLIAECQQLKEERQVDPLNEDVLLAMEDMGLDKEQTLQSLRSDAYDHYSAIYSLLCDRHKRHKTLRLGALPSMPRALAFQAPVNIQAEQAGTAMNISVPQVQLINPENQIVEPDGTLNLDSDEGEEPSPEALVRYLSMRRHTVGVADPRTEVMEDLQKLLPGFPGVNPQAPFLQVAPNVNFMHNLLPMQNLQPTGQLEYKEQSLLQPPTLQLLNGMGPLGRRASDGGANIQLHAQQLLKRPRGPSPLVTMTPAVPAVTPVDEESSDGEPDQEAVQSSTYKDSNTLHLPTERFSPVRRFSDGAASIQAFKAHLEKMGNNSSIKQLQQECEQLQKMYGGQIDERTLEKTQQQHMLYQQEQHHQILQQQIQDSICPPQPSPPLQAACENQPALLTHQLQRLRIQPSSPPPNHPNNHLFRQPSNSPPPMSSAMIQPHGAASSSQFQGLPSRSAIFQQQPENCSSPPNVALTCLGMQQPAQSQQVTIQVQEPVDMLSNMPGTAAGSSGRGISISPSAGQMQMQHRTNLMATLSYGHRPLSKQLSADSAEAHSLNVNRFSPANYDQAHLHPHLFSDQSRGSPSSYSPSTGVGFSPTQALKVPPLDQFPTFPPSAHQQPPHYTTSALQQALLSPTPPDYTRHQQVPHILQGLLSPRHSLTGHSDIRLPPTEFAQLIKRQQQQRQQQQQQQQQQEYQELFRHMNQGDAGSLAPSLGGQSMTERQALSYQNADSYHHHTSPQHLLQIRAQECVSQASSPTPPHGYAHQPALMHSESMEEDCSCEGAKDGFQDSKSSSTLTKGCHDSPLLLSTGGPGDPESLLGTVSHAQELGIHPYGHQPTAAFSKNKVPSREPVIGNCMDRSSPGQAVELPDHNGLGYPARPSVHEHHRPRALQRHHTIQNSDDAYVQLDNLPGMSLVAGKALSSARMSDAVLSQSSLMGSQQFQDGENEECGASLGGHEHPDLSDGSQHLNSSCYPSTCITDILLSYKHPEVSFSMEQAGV
How it was run: as §1

[6] = molecular target: 140 purified human kinases (Homo sapiens, UniProt Q16513)
140 purified human kinases (Homo sapiens, UniProt Q16513), sequence (Q16513 whole entry): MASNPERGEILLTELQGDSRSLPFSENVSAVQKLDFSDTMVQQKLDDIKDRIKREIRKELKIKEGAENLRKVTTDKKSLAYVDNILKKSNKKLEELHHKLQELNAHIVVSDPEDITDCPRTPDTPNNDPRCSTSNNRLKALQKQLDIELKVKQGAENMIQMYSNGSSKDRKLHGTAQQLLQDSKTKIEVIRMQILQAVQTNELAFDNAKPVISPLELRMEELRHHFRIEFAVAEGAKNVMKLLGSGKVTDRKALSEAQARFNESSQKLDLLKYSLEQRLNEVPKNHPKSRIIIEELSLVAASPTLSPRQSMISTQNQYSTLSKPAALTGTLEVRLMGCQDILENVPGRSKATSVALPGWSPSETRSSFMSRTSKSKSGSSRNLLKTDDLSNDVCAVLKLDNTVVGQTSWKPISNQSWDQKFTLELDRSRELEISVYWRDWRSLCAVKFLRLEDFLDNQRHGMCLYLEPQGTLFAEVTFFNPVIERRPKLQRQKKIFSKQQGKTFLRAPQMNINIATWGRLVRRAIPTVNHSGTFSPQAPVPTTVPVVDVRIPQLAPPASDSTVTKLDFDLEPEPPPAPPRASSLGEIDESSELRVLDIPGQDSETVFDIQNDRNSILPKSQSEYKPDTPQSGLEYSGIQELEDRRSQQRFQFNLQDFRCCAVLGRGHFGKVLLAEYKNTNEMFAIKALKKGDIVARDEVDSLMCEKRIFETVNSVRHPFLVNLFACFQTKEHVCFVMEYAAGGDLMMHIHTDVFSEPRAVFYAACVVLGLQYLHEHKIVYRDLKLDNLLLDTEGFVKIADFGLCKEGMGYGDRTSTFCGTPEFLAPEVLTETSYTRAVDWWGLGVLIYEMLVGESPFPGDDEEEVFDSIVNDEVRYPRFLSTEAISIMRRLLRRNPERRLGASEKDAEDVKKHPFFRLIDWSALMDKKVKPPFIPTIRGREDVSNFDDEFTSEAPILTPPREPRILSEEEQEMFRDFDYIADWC
How it was run: as §1

[7] = molecular target: 140 purified human kinases (Homo sapiens, UniProt Q9P289)
140 purified human kinases (Homo sapiens, UniProt Q9P289), sequence (Q9P289 whole entry): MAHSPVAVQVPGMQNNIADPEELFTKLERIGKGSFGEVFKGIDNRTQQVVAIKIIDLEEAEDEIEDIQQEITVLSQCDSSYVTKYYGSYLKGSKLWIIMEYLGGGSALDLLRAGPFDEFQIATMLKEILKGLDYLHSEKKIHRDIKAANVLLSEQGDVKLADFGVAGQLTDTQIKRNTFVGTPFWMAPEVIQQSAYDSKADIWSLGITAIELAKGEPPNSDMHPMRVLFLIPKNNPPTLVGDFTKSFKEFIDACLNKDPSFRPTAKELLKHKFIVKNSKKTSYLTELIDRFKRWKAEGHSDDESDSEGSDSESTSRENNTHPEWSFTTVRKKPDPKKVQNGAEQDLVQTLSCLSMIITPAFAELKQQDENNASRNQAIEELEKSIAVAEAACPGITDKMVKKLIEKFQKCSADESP
How it was run: as §1

[8] = molecular target: 140 purified human kinases (Homo sapiens, UniProt P14616); settings: IRR
How it was run: as §1

[9] = molecular target: 140 purified human kinases (Homo sapiens, UniProt P51812)
140 purified human kinases (Homo sapiens, UniProt P51812), sequence (P51812 whole entry): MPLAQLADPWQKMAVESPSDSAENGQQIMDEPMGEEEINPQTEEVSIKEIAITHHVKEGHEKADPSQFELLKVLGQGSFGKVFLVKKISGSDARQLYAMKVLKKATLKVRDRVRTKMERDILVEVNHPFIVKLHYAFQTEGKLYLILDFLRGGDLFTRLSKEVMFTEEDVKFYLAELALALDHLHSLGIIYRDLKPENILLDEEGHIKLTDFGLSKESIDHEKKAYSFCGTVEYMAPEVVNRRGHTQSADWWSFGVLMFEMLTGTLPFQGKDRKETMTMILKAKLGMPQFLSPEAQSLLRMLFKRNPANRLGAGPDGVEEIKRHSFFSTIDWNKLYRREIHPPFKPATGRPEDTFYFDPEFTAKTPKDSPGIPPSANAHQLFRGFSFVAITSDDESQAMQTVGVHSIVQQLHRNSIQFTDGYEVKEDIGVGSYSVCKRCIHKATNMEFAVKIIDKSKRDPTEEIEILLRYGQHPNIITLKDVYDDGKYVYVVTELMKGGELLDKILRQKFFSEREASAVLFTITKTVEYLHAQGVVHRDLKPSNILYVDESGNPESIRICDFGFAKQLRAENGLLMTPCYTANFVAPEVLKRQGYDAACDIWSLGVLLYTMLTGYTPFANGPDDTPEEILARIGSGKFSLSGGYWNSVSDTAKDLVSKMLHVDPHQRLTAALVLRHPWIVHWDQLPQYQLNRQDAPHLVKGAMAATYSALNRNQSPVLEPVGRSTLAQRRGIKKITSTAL
How it was run: as §1

For `[Cu+2].[Cu+2].[Cu+2].c1ccc(-c2csc(NCCN(CCNc3nc(-c4ccccn4)cs3)CCNc3nc(-c4ccccn4)cs3)n2)nc1.c1ccc(-c2csc(NCCN(CCNc3nc(-c4ccccn4)cs3)CCNc3nc(-c4ccccn4)cs3)n2)nc1` [[L2Cu3]6+], the “% Inhibition Run 1” value ([1]; EPH-B3) was 12.5%, the “% Inhibition Run 2” value ([1]; EPH-B3) was 19.2% and the “% Inhibition, Mean” value ([1]; EPH-B3) was 16%. For the same compound, the mean % activity ([1]; EPH-B3) was 84%, the “% activity” value ([1]; EPH-B3, Run 1) was 87.5% and the “% activity” value ([1]; EPH-B3, Run 2) was 80.8%. For the same compound, the “% Inhibition Run 1” value ([2]; DYRK3) was 42.6%, the “% Inhibition Run 2” value ([2]; DYRK3) was 40.9% and the “% Inhibition, Mean” value ([2]; DYRK3) was 42%. For the same compound, the mean % activity ([2]; DYRK3) was 58%, the “% activity” value ([2]; DYRK3, Run 1) was 57.4% and the “% activity” value ([2]; DYRK3, Run 2) was 59.1%. The “% Inhibition Run 1” value ([3]; PAK6) was 49.1%, the “% Inhibition Run 2” value ([3]; PAK6) was 47.9% and the “% Inhibition, Mean” value ([3]; PAK6) was 49%. The mean % activity ([3]; PAK6) was 52%, the “% activity” value ([3]; PAK6, Run 1) was 50.9% and the “% activity” value ([3]; PAK6, Run 2) was 52.1%. The “% Inhibition Run 1” value ([4]; JNK1) was 20.4%, the “% Inhibition Run 2” value ([4]; JNK1) was 5.8% and the “% Inhibition, Mean” value ([4]; JNK1) was 13%. For the same compound, the mean % activity ([4]; JNK1) was 87%, the “% activity” value ([4]; JNK1, Run 1) was 79.6% and the “% activity” value ([4]; JNK1, Run 2) was 94.2%. For the same compound, the “% Inhibition Run 1” value ([5]; SIK3) was 48.7%, the “% Inhibition Run 2” value ([5]; SIK3) was 52.1% and the “% Inhibition, Mean” value ([5]; SIK3) was 50%. For the same compound, the mean % activity ([5]; SIK3) was 50%, the “% activity” value ([5]; SIK3, Run 1) was 51.3% and the “% activity” value ([5]; SIK3, Run 2) was 47.9%. The “% Inhibition Run 1” value ([6]; PRK2) was 87.9%, the “% Inhibition Run 2” value ([6]; PRK2) was 85.6% and the “% Inhibition, Mean” value ([6]; PRK2) was 87%. The mean % activity ([6]; PRK2) was 13%, the “% activity” value ([6]; PRK2, Run 1) was 12.1% and the “% activity” value ([6]; PRK2, Run 2) was 14.4%. For the same compound, the “% Inhibition Run 1” value ([7]; MST4) was 74.5%, the “% Inhibition Run 2” value ([7]; MST4) was 70.2% and the “% Inhibition, Mean” value ([7]; MST4) was 72%. The mean % activity ([7]; MST4) was 28%, the “% activity” value ([7]; MST4, Run 1) was 25.5% and the “% activity” value ([7]; MST4, Run 2) was 29.8%. The “% Inhibition Run 1” value [8] was 26.1%, the “% Inhibition Run 2” value [8] was 42.9% and the “% Inhibition, Mean” value [8] was 35%. For the same compound, the mean % activity [8] was 66%, the “% activity” value ([8]; Run 1) was 73.9% and the “% activity” value ([8]; Run 2) was 57.1%. The “% Inhibition Run 1” value ([9]; RSK2) was 87.4%, the “% Inhibition Run 2” value ([9]; RSK2) was 87.7% and the “% Inhibition, Mean” value ([9]; RSK2) was 88%. The mean % activity ([9]; RSK2) was 12%, the “% activity” value ([9]; RSK2, Run 1) was 12.6% and the “% activity” value ([9]; RSK2, Run 2) was 12.3%.
`CC(=O)[O-].CC(=O)[O-].CC(=O)[O-].CC(=O)[O-].CC(=O)[O-].CC(=O)[O-].[Zn+2].[Zn+2].[Zn+2].c1ccc(-c2csc(NCCN(CCNc3nc(-c4ccccn4)cs3)CCNc3nc(-c4ccccn4)cs3)n2)nc1.c1ccc(-c2csc(NCCN(CCNc3nc(-c4ccccn4)cs3)CCNc3nc(-c4ccccn4)cs3)n2)nc1` [[L2Zn3]6+] was tested, and the “% Inhibition, Mean” value ([1]; EPH-B3) was 51%, the “% Inhibition, Run 1 / Run 2” value ([1]; EPH-B3) was 59% and 44% and the mean % activity ([1]; EPH-B3) was 49%. The “% activity” value ([1]; EPH-B3, duplicate runs) was 41% and 56%, the “% Inhibition, Mean” value ([2]; DYRK3) was 30% and the “% Inhibition, Run 1 / Run 2” value ([2]; DYRK3) was 32% and 28%. For the same compound, the mean % activity ([2]; DYRK3) was 70%, the “% activity” value ([2]; DYRK3, duplicate runs) was 68% and 72% and the “% Inhibition, Mean” value ([3]; PAK6) was 27%. The mean % activity ([3]; PAK6) was 73%, the “% activity” value ([3]; PAK6, duplicate runs) was 63% and 83% and the “% Inhibition, Mean” value ([4]; JNK1) was 5%. The mean % activity ([4]; JNK1) was 95%, the “% activity” value ([4]; JNK1, duplicate runs) was 88% and 102% and the “% Inhibition, Mean” value ([5]; SIK3) was 39%. For the same compound, the “% Inhibition, Run 1 / Run 2” value ([5]; SIK3) was 45% and 33%, the mean % activity ([5]; SIK3) was 61% and the “% activity” value ([5]; SIK3, duplicate runs) was 55% and 67%. The “% Inhibition, Mean” value ([6]; PRK2) was 71%, the “% Inhibition, Run 1 / Run 2” value ([6]; PRK2) was 77% and 65% and the mean % activity ([6]; PRK2) was 29%. For the same compound, the “% activity” value ([6]; PRK2, duplicate runs) was 23% and 35%, the “% Inhibition, Mean” value ([7]; MST4) was 23% and the “% Inhibition, Run 1 / Run 2” value ([7]; MST4) was 26% and 19%. The mean % activity ([7]; MST4) was 77%, the “% activity” value ([7]; MST4, duplicate runs) was 74% and 81% and the “% Inhibition, Mean” value [8] was 6.6%. For the same compound, the “% Inhibition, Run 1 / Run 2” value [8] was 2.4% and 11%, the mean % activity [8] was 93% and the “% activity” value ([8]; duplicate runs) was 98% and 89%. The “% Inhibition, Mean” value ([9]; RSK2) was 44%, the “% Inhibition, Run 1 / Run 2” value ([9]; RSK2) was 50% and 39% and the mean % activity ([9]; RSK2) was 56%. For the same compound, the “% activity” value ([9]; RSK2, duplicate runs) was 50% and 61%.
